In US20040192720A1, “Novel heteroaryl alkylamide derivatives useful as bradykinin receptor modulators” (priority 2003, published 2004):

Target: T1, human B2 bradykinin receptors (CHO-hB2 cell membranes) (Homo sapiens, UniProt P30411)
T1 construct: purchased Receptor Biology, Inc. (Baltimore, Md.); host or cells: CHO-hB2 cells (membranes)
T1 sequence (P30411 1-391): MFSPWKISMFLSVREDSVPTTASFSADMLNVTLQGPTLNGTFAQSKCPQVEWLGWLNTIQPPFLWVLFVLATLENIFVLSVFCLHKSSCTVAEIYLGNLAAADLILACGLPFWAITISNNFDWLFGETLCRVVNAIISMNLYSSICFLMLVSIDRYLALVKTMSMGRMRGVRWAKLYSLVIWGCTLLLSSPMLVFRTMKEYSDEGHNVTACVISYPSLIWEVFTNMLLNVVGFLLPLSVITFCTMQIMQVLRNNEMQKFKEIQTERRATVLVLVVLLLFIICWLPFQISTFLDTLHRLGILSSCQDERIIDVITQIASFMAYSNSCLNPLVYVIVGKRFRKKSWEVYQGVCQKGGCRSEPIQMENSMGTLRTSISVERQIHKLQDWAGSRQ
Assay: [35S]GTPγS Binding Assay in CHO-hB2 Cell Membranes
Assay type: biochemical
Settings: bradykinin-stimulated [35S]GTPγS binding; for Functional Activity (% Basal): number in parentheses, concentration not given
Experimental: [^35S]GTPγS Binding Assay in CHO-hB2Cell Membranes
CHO-hB2 cell membranes were purchased from Receptor Biology, Inc. (Baltimore, Md.). 10 mg/mL of membrane protein was suspended in 10 mM TRIS-HC pH 7.2, 2 mM EDTA, 10% sucrose.
Membranes were added into 15 mL ice cold binding assay buffer. The assay buffer contained 50 mM HEPES, pH 7.6, 5 mM MgCl2, 100 mM NaCl, 1 mM DTT and 1 mM EDTA. The membrane suspension was homogenized twice with a Polytron and centrifuged at 3000 rpm for 10 min. The supernatant was then centrifuged at 18,000 rpm for 20 min. The pellet was saved in a tube and resuspended.
The pellet membranes (40 μg/mL) were preincubated with SPA (scintillation proximity assay) beads (20 mg/mL) at 25 C. ° for 45 min in the assay buffer. The SPA beads (5 mg/mL) coupled with membranes (10 μg/mL) were then incubated with 0.5 nM [^35S]GTPγS in the same HEPES buffer containing 50 μM GDP in total volume of 200 μL. Bradykinin was used to stimulate [^35S]GTPγS binding. Varying concentrations of drugs were incubated with bradykinin to inhibit bradykinin-stimulated [^35S]GTPγS binding. The basal binding was tested in the absence of bradykinin and no specific binding was tested in the present 10 μM unlabeled GTPγS. The radioactivity was quantified on a Packard Top Count, and calculated.
% of Basal=(stimulated binding−non specific binding)/(basal binding−non specific binding)×100.

Row | Structure (SMILES) | Functional Activity (word result) | Functional Activity (% Basal)
1 | Cc1ccc2cccc(OCc3c(Cl)ccc(N(C)C(=O)Cc4cc(C(=O)c5ccc(C#N)cc5)n(C)c4)c3Cl)c2n1 [Compound 4, 2-[5-(4-Cyano-benzoyl)-1-methyl-1H-pyrrol-3-yl]-N-[2,4-dichloro-3-(2-methyl-quinolin-8-yloxymethyl)-phenyl]-N-methyl-acetamide] | Antagonist | –
2 | COc1ccc(C(=O)c2ccc(CC(=O)N(C)c3ccc(Cl)c(COc4cccc5ccc(C)nc45)c3Cl)[nH]2)cc1 [Compound 5] | Antagonist | –
3 | CCn1c(CC(=O)N(C)c2ccc(Cl)c(COc3cccc4ccc(C)nc34)c2Cl)ccc1C(=O)c1ccc(C#N)cc1 [Compound 8] | Antagonist | 40
4 | CCCn1c(CC(=O)N(C)c2ccc(Cl)c(COc3cccc4ccc(C)nc34)c2Cl)ccc1C(=O)c1ccc(C#N)cc1 [Compound 9] | No effect | 1
5 | CCCCn1c(CC(=O)N(C)c2ccc(Cl)c(COc3cccc4ccc(C)nc34)c2Cl)ccc1C(=O)c1ccc(C#N)cc1 [Compound 10] | No effect | 1
6 | Cc1ccc2cccc(OCc3c(Cl)ccc(N(C)C(=O)Cc4ccc(C(=O)c5ccc(C#N)cc5)n4CC4CC4)c3Cl)c2n1 [Compound 11, 2-[5-(4-Cyano-benzoyl)-1-cyclopropylmethyl-1H-pyrrol-2-yl]-N-[2,4-dichloro-3-(2-methyl-quinolin-8-yloxymethyl)-phenyl]-N-methyl-acetamide] | No effect | 1
7 | Cc1ccc2cccc(OCc3c(Cl)ccc(N(C)C(=O)Cc4ccc(C(=O)c5ccc(C#N)cc5)n4CC(C)C)c3Cl)c2n1 [Compound 12] | No effect | 1
8 | Cc1ccc2cccc(OCc3c(Cl)ccc(N(C)C(=O)Cc4ccc(C(=O)c5ccc(C#N)cc5)n4CCC(C)C)c3Cl)c2n1 [Compound 13] | No effect | 1
9 | CCN(C(=O)Cc1ccc(C(=O)c2ccc(C#N)cc2)n1C)c1ccc(C)c(COc2cccc3ccc(C)nc23)c1C [Compound 16] | No effect | 1
10 | CCN(C(=O)Cc1ccc(C(=O)c2ccc(Cl)nc2)n1C)c1ccc(Cl)c(COc2cccc3ccc(C)nc23)c1Cl [Compound 17] | No effect | 1
11 | CCN(C(=O)Cc1ccc(C(=O)c2ccc(C#N)cc2)n1C)c1ccc(Cl)c(COc2cccc3ccc(C)nc23)c1Cl [Compound 18] | No effect | 1
12 | Cc1ccc2cccc(OCc3c(Cl)ccc(N(C)C(=O)Cc4ccc(C(=O)CN5CCC(c6ccccc6)CC5)n4C)c3Cl)c2n1 [Compound 58, N-[2,4-Dichloro-3-(2-methyl-quinolin-8-yloxymethyl)-phenyl]-N-methyl-2-{1-methyl-5-[2-(4-phenyl-piperidin-1-yl)-acetyl]-1H-pyrrol-2-yl}-acetamide] | No effect | 1
13 | Cc1ccc2cccc(OCc3c(Cl)ccc(N(C)C(=O)Cc4ccc(C(=O)CN5CCC(Cc6ccccc6)CC5)n4C)c3Cl)c2n1 [Compound 59] | No effect | 1
14 | Cc1ccc2cccc(OCc3c(Cl)ccc(N(C)C(=O)Cc4ccc(C(=O)c5cccs5)n4C)c3Cl)c2n1 [Compound 61] | Weak antagonist | –
15 | Cc1ccc2cccc(OCc3c(Cl)ccc(N(C)C(=O)Cc4ccc(C(=O)c5ccc(C(=O)N(C)C)cc5)n4C)c3Cl)c2n1 [Compound 62, 4-[5-({[2,4-Dichloro-3-(2-methyl-quinolin-8-yloxymethyl)-phenyl]-methyl-carbamoyl}-methyl)-1-methyl-1H-pyrrole-2-carbonyl]-N,N-dimethyl-benzamide] | Antagonist | –
16 | Cc1ccc2cccc(OCc3c(Cl)ccc(N(C)C(=O)Cc4ccc(C(=O)c5ccc([N+](=O)[O-])cc5)n4C)c3Cl)c2n1 [Compound 63] | Antagonist | –
17 | COC(=O)c1ccc(C(=O)c2ccc(CC(=O)N(C)c3ccc(Cl)c(COc4cccc5ccc(C)nc45)c3Cl)n2C)cc1 [Compound 64] | Antagonist | –
18 | Cc1ccc2cccc(OCc3c(Cl)ccc(N(C)C(=O)Cc4ccc(C(=O)c5ccc([N+](=O)[O-])c(C)c5)n4C)c3Cl)c2n1 [Compound 65, N-[2,4-Dichloro-3-(2-methyl-quinolin-8-yloxymethyl)-phenyl]-N-methyl-2-[1-methyl-5-(3-methyl-4-nitro-benzoyl)-1H-pyrrol-2-yl]-acetamide] | Antagonist | –
19 | Cc1ccc2cccc(OCc3c(Cl)ccc(N(C)C(=O)Cc4ccc(C(=O)c5ccccc5[N+](=O)[O-])n4C)c3Cl)c2n1 [Compound 66] | Antagonist | –
20 | Cc1ccc2cccc(OCc3c(Cl)ccc(N(C)C(=O)Cc4ccc(C(=O)c5ccc(Cl)nc5)n4C)c3Cl)c2n1 [Compound 67, 2-[5-(6-Chloro-pyridine-3-carbonyl)-1-methyl-1H-pyrrol-2-yl]-N-[2,4-dichloro-3-(2-methyl-quinolin-8-yloxymethyl)-phenyl]-N-methyl-acetamide] | Antagonist | –
21 | COc1ccc(C(=O)c2ccc(CC(=O)N(C)c3ccc(Cl)c(COc4cccc5ccc(C)nc45)c3Cl)n2C)cc1 [Compound 68] | Weak antagonist | 4
22 | CSc1ccc(C(=O)c2ccc(CC(=O)N(C)c3ccc(Cl)c(COc4cccc5ccc(C)nc45)c3Cl)n2C)cc1 [Compound 69] | Antagonist | –
23 | Cc1ccc2cccc(OCc3c(Cl)ccc(N(C)C(=O)Cc4ccc(C(=O)c5ccc(C#N)nc5)n4C)c3Cl)c2n1 [Compound 71] | Antagonist | –
24 | CC(=O)Nc1cccc(C(=O)c2ccc(CC(=O)N(C)c3ccc(Cl)c(COc4cccc5ccc(C)nc45)c3Cl)n2C)c1 [Compound 72] | Antagonist | –
25 | Cc1ccc2cccc(OCc3c(Cl)ccc(N(C)C(=O)Cc4ccc(C(=O)c5ccc([S+](C)[O-])cc5)n4C)c3Cl)c2n1 (stereo not drawn) [Compound 73, N-[2,4-Dichloro-3-(2-methyl-quinolin-8-yloxymethyl)-phenyl]-2-[5-(4-methanesulfinyl-benzoyl)-1-methyl-1H-pyrrol-2-yl]-N-methyl-acetamide] | Antagonist | –
26 | CC(=O)Nc1ccc(C(=O)c2ccc(CC(=O)N(C)c3ccc(Cl)c(COc4cccc5ccc(C)nc45)c3Cl)n2C)cc1 [Compound 74, 2-[5-(4-Acetylamino-benzoyl)-1-methyl-1H-pyrrol-2-yl]-N-[2,4-dichloro-3-(2-methyl-quinolin-8-yloxymethyl)-phenyl]-N-methyl-acetamide] | Antagonist | –
27 | Cc1ccc2cccc(OCc3c(Cl)ccc(N(C)C(=O)Cc4ccc(C(=O)c5ccc(S(C)(=O)=O)cc5)n4C)c3Cl)c2n1 [Compound 75, N-[2,4-Dichloro-3-(2-methyl-quinolin-8-yloxymethyl)-phenyl]-2-[5-(4-methanesulfonyl-benzoyl)-1-methyl-1H-pyrrol-2-yl]-N-methyl-acetamide] | Antagonist | –
28 | Cc1ccc2cccc(OCc3c(Cl)ccc(N(C)C(=O)Cc4ccc(C(=O)c5ccc(C#N)cc5)n4C)c3Cl)c2n1 [Compound 76] | Antagonist | –
29 | Cc1ccc2cccc(OCc3c(C)ccc(N(C)C(=O)Cc4ccc(C(=O)c5ccc(C#N)cc5)n4C)c3C)c2n1 [Compound 79, 2-[5-(4-Cyano-benzoyl)-1-methyl-1H-pyrrol-2-yl]-N-[2,4-dimethyl-3-(2-methyl-quinolin-8-yloxymethyl)-phenyl]-N-methyl-acetamide] | Antagonist | 100
